Measured values published in US11208400B2, “Substituted 6-(1H-pyrazol-1-yl)pyrimidin-4-amine derivatives and uses thereof” (Bayer Aktiengesellschaft, priority 2016, dated 2021).

What follows are molecules tested against T1, human Npt2a (Homo sapiens, UniProt Q06495) (assay: Npt2a activity cell based assay, membrane potential dye, CHO T-REx hNpt2a cells). Conditions: doxycycline-induced, depolarization by sodium phosphate influx, average or median values if tested more than once.
T1 construct: expressed in transfected cells
T1 sequence (Q06495 1-639): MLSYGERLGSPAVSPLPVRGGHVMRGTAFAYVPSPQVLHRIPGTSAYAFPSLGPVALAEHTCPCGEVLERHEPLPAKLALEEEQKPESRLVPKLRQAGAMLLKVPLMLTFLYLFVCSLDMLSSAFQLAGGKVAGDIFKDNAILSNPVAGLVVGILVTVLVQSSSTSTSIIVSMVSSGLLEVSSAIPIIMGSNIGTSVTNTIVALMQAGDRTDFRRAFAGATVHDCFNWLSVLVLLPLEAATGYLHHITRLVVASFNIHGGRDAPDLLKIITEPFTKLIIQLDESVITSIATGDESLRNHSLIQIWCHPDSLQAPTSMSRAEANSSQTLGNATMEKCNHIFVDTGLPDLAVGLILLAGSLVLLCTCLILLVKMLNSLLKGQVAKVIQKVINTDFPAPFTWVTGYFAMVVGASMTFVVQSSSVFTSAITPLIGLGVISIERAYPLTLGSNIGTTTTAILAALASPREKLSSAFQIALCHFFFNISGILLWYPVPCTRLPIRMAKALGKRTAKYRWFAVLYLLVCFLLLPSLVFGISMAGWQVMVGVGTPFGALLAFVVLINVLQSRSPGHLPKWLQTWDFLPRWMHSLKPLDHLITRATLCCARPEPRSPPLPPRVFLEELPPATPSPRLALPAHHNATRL
Procedure, shortened: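 Doxycycline-induced (0.5 μg/mL, 24 h) CHO T-REx cells were loaded with membrane potential dye in sodium-free NHE buffer (pH 7.4) and exposed to compound (50 μM–1 nM, 5 min, room temperature).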
Molecule `Cc1nn(-c2cc(Nc3c(C)c(-c4ccc(F)cc4)nn3CC3CC3)ncn2)c(C)c1Br` [Example 406, 6-(4-bromo-3,5-dimethyl-1H-pyrazol-1-yl)-N-[1-(cyclopropylmethyl)-3-(4-fluorophenyl)-4-methyl-1H-pyrazol-5-yl]pyrimidin-4-amine] has an IC50 of 3 nM. In the case of `Cc1cc(C)n(-c2cc(Nc3c(C)c(-c4ccc(C(F)F)cc4)nn3C)ncn2)n1` [Example 407, N-{3-[4-(difluoromethyl)phenyl]-1,4-dimethyl-1H-pyrazol-5-yl}-6-(3,5-dimethyl-1H-pyrazol-1-yl)pyrimidin-4-amine], the IC50 is reported as 29 nM. For `Cc1cc(C(F)F)n(-c2cc(Nc3c(C)c(-c4ccc(C(F)F)cc4)nn3C)ncn2)n1` [Example 408, 6-[5-(difluoromethyl)-3-methyl-1H-pyrazol-1-yl]-N-{3-[4-(difluoromethyl)phenyl]-1,4-dimethyl-1H-pyrazol-5-yl}pyrimidin-4-amine], the IC50 was 6 nM. For `Cc1cc(C)n(-c2cc(Nc3nn(C)c(-c4ccc(C(F)F)cc4)c3C)ncn2)n1` [Example 409, N-{5-[4-(difluoromethyl)phenyl]-1,4-dimethyl-1H-pyrazol-3-yl}-6-(3,5-dimethyl-1H-pyrazol-1-yl)pyrimidin-4-amine], the IC50 was 140 nM. Molecule `COc1c(Nc2cc(-n3nc(C)cc3C(F)F)ncn2)nn(C)c1-c1ccc(C#N)cc1` [Example 410, 4-[3-({6-[5-(difluoromethyl)-3-methyl-1H-pyrazol-1-yl]pyrimidin-4-yl}amino)-4-methoxy-1-methyl-1H-pyrazol-5-yl]benzonitrile] has an IC50 of 2 nM. `COc1c(-c2ccc(C#N)cc2)nn(C)c1Nc1cc(-n2nc(C)cc2C(F)F)ncn1` [Example 411, 4-[5-({6-[5-(difluoromethyl)-3-methyl-1H-pyrazol-1-yl]pyrimidin-4-yl}amino)-4-methoxy-1-methyl-1H-pyrazol-3-yl]benzonitrile] gave an IC50 of 150 nM. `Cc1cc(C(F)F)n(-c2cc(Nc3nn(C)c(-c4ccc(F)cc4)c3OC(F)F)ncn2)n1` [Example 412, N-[4-(difluoromethoxy)-5-(4-fluorophenyl)-1-methyl-1H-pyrazol-3-yl]-6-[5-(difluoromethyl)-3-methyl-1H-pyrazol-1-yl]pyrimidin-4-amine] showed an IC50 of 12 nM. `Cc1nn(-c2cc(Nc3nn(C)c(-c4ccc(F)cc4)c3OC(F)F)ncn2)c(C)c1Cl` [Example 413, 6-(4-chloro-3,5-dimethyl-1H-pyrazol-1-yl)-N-[4-(difluoromethoxy)-5-(4-fluorophenyl)-1-methyl-1H-pyrazol-3-yl]pyrimidin-4-amine] showed an IC50 of 4 nM. In the case of `COCCn1nc(-c2ccc(F)cc2)c(C)c1Nc1cc(-n2nc(C)c(Cl)c2C)ncn1` [Example 414, 6-(4-chloro-3,5-dimethyl-1H-pyrazol-1-yl)-N-[3-(4-fluorophenyl)-1-(2-methoxyethyl)-4-methyl-1H-pyrazol-5-yl]pyrimidin-4-amine], the IC50 is reported as 3 nM. For `Cc1ccc(-c2nn(CC3CC3)c(Nc3cc(-n4nc(C)cc4C(F)F)ncn3)c2C)cn1` [Example 415, N-[1-(cyclopropylmethyl)-4-methyl-3-(6-methylpyridin-3-yl)-1H-pyrazol-5-yl]-6-[5-(difluoromethyl)-3-methyl-1H-pyrazol-1-yl]pyrimidin-4-amine], the IC50 was 1150 nM. `Cc1c(-c2ccc(F)cc2)nn(CC2CC2)c1Nc1cc(-n2[nH]c3c(c2=O)CCCC3)ncn1` [Example 416, 2-(6-{[1-(cyclopropylmethyl)-3-(4-fluorophenyl)-4-methyl-1H-pyrazol-5-yl]amino}pyrimidin-4-yl)-1,2,4,5,6,7-hexahydro-3H-indazol-3-one] showed an IC50 of 1150 nM. `CNc1ccc(-c2nn(CC3CC3)c(Nc3cc(-n4nc(C)c(Cl)c4C)ncn3)c2C)cc1` [Example 417, 6-(4-chloro-3,5-dimethyl-1H-pyrazol-1-yl)-N-{1-(cyclopropylmethyl)-4-methyl-3-[4-(methylamino)phenyl]-1H-pyrazol-5-yl}pyrimidin-4-amine] showed an IC50 of 27 nM. With `CCOC(=O)c1c(C)nn(-c2cc(Nc3c(C)c(-c4ccc(C)nc4)nn3CC3CC3)ncn2)c1C` [Example 418, ethyl 1-(6-{[1-(cyclopropylmethyl)-4-methyl-3-(6-methylpyridin-3-yl)-1H-pyrazol-5-yl]amino}pyrimidin-4-yl)-3,5-dimethyl-1H-pyrazole-4-carboxylate] the IC50 was 65 nM. Work on `Cc1cc(C)n(-c2cc(Nc3c(C)c(-c4ccc(F)cn4)nn3CC3CC3)ncn2)n1` [Example 421, N-[1-(cyclopropylmethyl)-3-(5-fluoropyridin-2-yl)-4-methyl-1H-pyrazol-5-yl]-6-(3,5-dimethyl-1H-pyrazol-1-yl)pyrimidin-4-amine] yielded an IC50 of 410 nM. `Cc1cc(C(F)F)n(-c2cc(Nc3c(C)c(-c4ccc(F)cn4)nn3CC3CC3)ncn2)n1` [Example 422, N-[1-(cyclopropylmethyl)-3-(5-fluoropyridin-2-yl)-4-methyl-1H-pyrazol-5-yl]-6-[5-(difluoromethyl)-3-methyl-1H-pyrazol-1-yl]pyrimidin-4-amine] was tested, and the IC50 was 240 nM. With `Cc1nn(-c2cc(Nc3c(C)c(-c4ccc(F)cc4)nn3CC3CC3)ncn2)c(C)c1S(C)(=O)=O` [Example 423, N-[1-(cyclopropylmethyl)-3-(4-fluorophenyl)-4-methyl-1H-pyrazol-5-yl]-6-[3,5-dimethyl-4-(methylsulfonyl)-1H-pyrazol-1-yl]pyrimidin-4-amine] the IC50 was 55 nM. `Cc1c(Nc2cc(-n3cc(C(F)(F)F)cn3)ncn2)nn(C)c1-c1ccc(F)cc1` [Example 424, N-[5-(4-fluorophenyl)-1,4-dimethyl-1H-pyrazol-3-yl]-6-[4-(trifluoromethyl)-1H-pyrazol-1-yl]pyrimidin-4-amine] showed an IC50 of 370 nM. `Cc1c(-c2ccc(F)cc2)nn(CC2CC2)c1Nc1cc(-n2cc(C(F)(F)F)cn2)ncn1` [Example 426, N-[1-(cyclopropylmethyl)-3-(4-fluorophenyl)-4-methyl-1H-pyrazol-5-yl]-6-[4-(trifluoromethyl)-1H-pyrazol-1-yl]pyrimidin-4-amine] showed an IC50 of 59 nM. In the case of `Cc1c(-c2ccc(F)cc2)nn(C)c1Nc1cc(-n2cc(C(F)(F)F)cn2)ncn1` [Example 427, N-[3-(4-fluorophenyl)-1,4-dimethyl-1H-pyrazol-5-yl]-6-[4-(trifluoromethyl)-1H-pyrazol-1-yl]pyrimidin-4-amine], the IC50 is reported as 15 nM. `COc1c(-c2ccc(C#N)cc2)nn(C)c1Nc1cc(-n2nc(C)c(CC(C)(C)O)c2C)ncn1` [Example 428, 4-[5-({6-[4-(2-hydroxy-2-methylpropyl)-3,5-dimethyl-1H-pyrazol-1-yl]pyrimidin-4-yl}amino)-4-methoxy-1-methyl-1H-pyrazol-3-yl]benzonitrile] gave an IC50 of 550 nM. For `Cc1nn(-c2cc(Nc3c(C)c(-c4ccc(F)cc4)nn3CC3CC3)ncn2)c(C)c1O` [Example 429, 1-(6-{[1-(cyclopropylmethyl)-3-(4-fluorophenyl)-4-methyl-1H-pyrazol-5-yl]amino}pyrimidin-4-yl)-3,5-dimethyl-1H-pyrazol-4-ol], the IC50 was 17 nM. Molecule `CSc1cc(-c2nn(CC3CC3)c(Nc3cc(-n4nc(C)cc4C)ncn3)c2C)ccc1F` [Example 430, N-{1-(cyclopropylmethyl)-3-[4-fluoro-3-(methylsulfanyl)phenyl]-4-methyl-1H-pyrazol-5-yl}-6-(3,5-dimethyl-1H-pyrazol-1-yl)pyrimidin-4-amine] has an IC50 of 45 nM. With `Cc1c(-c2ccc(F)cc2)nn(CC2CC2)c1Nc1cc(-n2ncc3c2CN(C(=O)OC(C)(C)C)C3)ncn1` [Example 431, tert-butyl 1-(6-{[1-(cyclopropylmethyl)-3-(4-fluorophenyl)-4-methyl-1H-pyrazol-5-yl]amino}pyrimidin-4-yl)-4,6-dihydropyrrolo[3,4-c]pyrazole-5(1H)-carboxylate] the IC50 was 69 nM. With `Cc1cc(C(F)F)n(-c2cc(Nc3nn(C)c(-c4ccc(C(F)F)cc4)c3C)ncn2)n1` [Example 432, 6-[5-(difluoromethyl)-3-methyl-1H-pyrazol-1-yl]-N-{5-[4-(difluoromethyl)phenyl]-1,4-dimethyl-1H-pyrazol-3-yl}pyrimidin-4-amine] the IC50 was 320 nM. `Cc1c(-c2ccc(F)cc2)nn(CC2CC2)c1Nc1cc(-n2cc3c(n2)CN(C(=O)OC(C)(C)C)C3)ncn1` [Example 433, tert-butyl 2-(6-{[1-(cyclopropylmethyl)-3-(4-fluorophenyl)-4-methyl-1H-pyrazol-5-yl]amino}pyrimidin-4-yl)-2,6-dihydropyrrolo[3,4-c]pyrazole-5(4H)-carboxylate] gave an IC50 of 1500 nM. For `COc1c(C)nn(-c2cc(Nc3nn(C)c(-c4ccc(F)cc4)c3C)ncn2)c1C` [Example 434, N-[5-(4-fluorophenyl)-1,4-dimethyl-1H-pyrazol-3-yl]-6-(4-methoxy-3,5-dimethyl-1H-pyrazol-1-yl)pyrimidin-4-amine], the IC50 was 7 nM. `COc1c(C)nn(-c2cc(Nc3nn(C)c(-c4ccc(C#N)cc4)c3C)ncn2)c1C` [Example 435, 4-(3-{[6-(4-methoxy-3,5-dimethyl-1H-pyrazol-1-yl)pyrimidin-4-yl]amino}-1,4-dimethyl-1H-pyrazol-5-yl)benzonitrile] showed an IC50 of 5 nM.
